Patent US7186831B2, “5-halo-2-alkyl[1,2,4]triazolo[1,5-a]pyrimidin-7-amines” (priority 2001, dated 2007)

assay: log P by HPLC; format: physicochemical; settings: EEC directive 79/831 Annex V. A8 by HPLC (gradient method, acetonitrile/0.1% aqueous phosphoric acid)

Compound | logP
C=C(C)CN(CC)c1c(-c2c(F)cccc2F)c(Cl)nc2nc(C)nn12 [compound 339] | 3.65
CCN(CC1CCCO1)c1c(-c2c(F)cccc2F)c(Cl)nc2nc(C)nn12 (stereo not drawn) [compound 341] | 3
CCN(CCOC)c1c(-c2c(F)cccc2F)c(Cl)nc2nc(C)nn12 [compound 342] | 2.74
CCCN(CC1CCCCO1)c1c(-c2c(F)cccc2F)c(Cl)nc2nc(C)nn12 (stereo not drawn) [compound 346] | 3.95
CCCN(CC1CCCO1)c1c(-c2c(F)cccc2F)c(Cl)nc2nc(C)nn12 (stereo not drawn) [compound 347] | 3.39
Cc1nc2nc(Cl)c(-c3ccc(F)cc3F)c(NC3CCCC(C(F)(F)F)C3)n2n1 (stereo not drawn) [compound 349] | 3.52
C#CCN(C)c1c(-c2ccc(F)cc2F)c(Cl)nc2nc(C)nn12 [compound 351] | 2.67
CCN(Cc1ccco1)c1c(-c2ccc(F)cc2F)c(Cl)nc2nc(C)nn12 [compound 354] | 3.39
CCOC(=O)CN(CC)c1c(-c2ccc(F)cc2F)c(Cl)nc2nc(C)nn12 [compound 355] | 3.04
CCCN(CC1CC1)c1c(-c2ccc(F)cc2F)c(Cl)nc2nc(C)nn12 [compound 356] | 3.91
CCCN(CC1CCCO1)c1c(-c2ccc(F)cc2F)c(Cl)nc2nc(C)nn12 (stereo not drawn) [compound 357] | 3.6
CC(Nc1c(-c2ccc(F)cc2F)c(Cl)nc2nc(C(F)(F)F)nn12)C(F)(F)F (stereo not drawn) [compound 358] | 3.89
Cc1nc2nc(Cl)c(-c3ccccc3F)c(NOCC(C)C)n2n1 [compound 361] | 2.98
CCONc1c(-c2ccccc2F)c(Cl)nc2nc(C)nn12 [compound 362] | 2.28
Cc1nc2nc(Cl)c(-c3ccccc3F)c(NOCc3ccccc3)n2n1 [compound 363] | 2.93
Cc1nc2nc(Cl)c(-c3ccccc3F)c(NOCc3cc(Cl)cc(Cl)c3)n2n1 [compound 364] | 3.76
Cc1nc2nc(Cl)c(-c3ccccc3F)c(NOCc3ccc(C(F)(F)F)cc3)n2n1 [compound 365] | 3.43
Cc1nc2nc(Cl)c(-c3ccccc3F)c(NOCc3ccccc3Cl)n2n1 [compound 366] | 3.21
Cc1nc2nc(Cl)c(-c3ccccc3F)c(NOCc3ccc(F)cc3)n2n1 [compound 369] | 2.98
C=CCONc1c(-c2ccccc2F)c(Cl)nc2nc(C)nn12 [compound 373] | 2.42
Cc1nc2nc(Cl)c(-c3ccccc3F)c(NOC3CCCCO3)n2n1 (stereo not drawn) [compound 375] | 2.59
CCN(CC(F)(F)F)c1c(-c2c(F)cc(F)cc2F)c(Cl)nc2nc(C)nn12 [compound 380] | 3.42
Cc1nc2nc(Cl)c(-c3ccccc3F)c(N(C)C)n2n1 [compound 381] | 2.34
Cc1nc2nc(Cl)c(-c3ccccc3F)c(N3CC(C)OC(C)C3)n2n1 (stereo not drawn) [compound 382] | 2.8
CCNc1c(-c2ccccc2F)c(Cl)nc2nc(C)nn12 [compound 383] | 2.3
Cc1nc2nc(Cl)c(-c3ccccc3F)c(N3CCCCC3)n2n1 [compound 384] | 3.19

Compound | logP
Cc1nc2nc(Cl)c(-c3ccccc3F)c(NCC(F)(F)F)n2n1 [compound 391] | 2.53
Cc1nc2nc(Cl)c(-c3ccccc3F)c(N3CCC(C(F)(F)F)CC3)n2n1 [compound 392] | 3.37
Cc1nc2nc(Cl)c(-c3ccccc3F)c(NCC3CC3)n2n1 [compound 393] | 2.72
C=C(C)CNc1c(-c2ccccc2F)c(Cl)nc2nc(C)nn12 [compound 394] | 2.68
Cc1nc2nc(Cl)c(-c3ccccc3F)c(NC(C)C3CCCCC3)n2n1 (stereo not drawn) [compound 396] | 4.16
Cc1nc2nc(Cl)c(-c3ccccc3F)c(NC3CCCCC3C(F)(F)F)n2n1 (stereo not drawn) [compound 398] | 3.49
Cc1nc2nc(Cl)c(-c3ccccc3F)c(NC3CC(C(F)(F)F)CC(C(F)(F)F)C3)n2n1 (stereo not drawn) [compound 399] | 3.73
Cc1nc2nc(Cl)c(-c3ccccc3F)c(NC3CCC(C(F)(F)F)CC3)n2n1 (stereo not drawn) [compound 400] | 3.48
Cc1nc2nc(Cl)c(-c3ccccc3Cl)c(N3CCC(F)CC3)n2n1 [compound 402] | 3.05
Cc1nc2nc(Cl)c(-c3ccccc3Cl)c(NCC#N)n2n1 [compound 403] | 2.03
Cc1nc2nc(Cl)c(-c3ccc(F)cc3F)c(NC3CCCC3)n2n1 [compound 405] | 3.24
Cc1nc2nc(Cl)c(-c3ccc(F)cc3F)c(NCC(F)(F)F)n2n1 [compound 406] | 2.68
CC(=O)CC(C)(C)Nc1c(-c2ccc(F)cc2F)c(Cl)nc2nc(C)nn12 [compound 407] | 2.53
Cc1nc2nc(Cl)c(-c3ccc(F)cc3F)c(NC3CCCCC3C(F)(F)F)n2n1 (stereo not drawn) [compound 408] | 3.56
CCOC(=O)CN(C)c1c(-c2ccc(F)cc2F)c(Cl)nc2nc(C)nn12 [compound 410] | 2.8
Cc1nc2nc(Cl)c(-c3ccc(F)cc3F)c(N(C)CCC#N)n2n1 [compound 411] | 2.34
Cc1nc2nc(Cl)c(-c3ccc(F)cc3F)c(N(C)CC#N)n2n1 [compound 412] | 2.34
CCOC(=O)CN(c1c(-c2ccc(F)cc2F)c(Cl)nc2nc(C)nn12)C1CC1 [compound 414] | 3.29
Cc1nc2nc(Cl)c(-c3ccc(F)cc3F)c(N3CCC(O)C3)n2n1 (stereo not drawn) [compound 415] | 1.95
C=CC(C)Nc1c(-c2c(F)cc(F)cc2F)c(Cl)nc2nc(C)nn12 (stereo not drawn) [compound 417] | 2.85
Cc1nc2nc(Cl)c(-c3c(F)cccc3F)c(N(C)C)n2n1 [compound 418] | 2.37
CCNc1c(-c2c(F)cccc2F)c(Cl)nc2nc(C)nn12 [compound 419] | 2.31
Cc1nc2nc(Cl)c(-c3c(F)cccc3F)c(NCC#N)n2n1 [compound 420] | 1.91
Cc1nc2nc(Cl)c(-c3c(F)cccc3F)c(NC(C)(C)C(F)(F)F)n2n1 [compound 421] | 3.34
Cc1nc2nc(Cl)c(-c3c(F)cccc3F)c(N3CCCCC3C(F)(F)F)n2n1 (stereo not drawn) [compound 423] | 3.33
Cc1nc2nc(Cl)c(-c3c(F)cccc3F)c(NCC(F)(F)F)n2n1 [compound 424] | 2.56

Second part, the compound after the results:

logP | Compound
3.46 | CCCCN(C)c1c(-c2c(F)cccc2F)c(Cl)nc2nc(C)nn12 [compound 338]
3.28 | CCN(Cc1ccco1)c1c(-c2c(F)cccc2F)c(Cl)nc2nc(C)nn12 [compound 340]
2.85 | CCOC(=O)CN(CC)c1c(-c2c(F)cccc2F)c(Cl)nc2nc(C)nn12 [compound 343]
3.82 | CCCCN(CC)c1c(-c2c(F)cccc2F)c(Cl)nc2nc(C)nn12 [compound 344]
3.83 | CCCN(CC1CC1)c1c(-c2c(F)cccc2F)c(Cl)nc2nc(C)nn12 [compound 345]
3.12 | CCCN(CCOC)c1c(-c2c(F)cccc2F)c(Cl)nc2nc(C)nn12 [compound 348]
1.23 | Cc1nc2nc(Cl)c(-c3ccc(F)cc3F)c(N(C)CCN(C)C)n2n1 [compound 350]
2.58 | COCCN(C)c1c(-c2ccc(F)cc2F)c(Cl)nc2nc(C)nn12 [compound 352]
1.37 | CCN(CCN(C)C)c1c(-c2ccc(F)cc2F)c(Cl)nc2nc(C)nn12 [compound 353]
3.28 | Cc1nc2nc(Cl)c(-c3ccccc3F)c(NOCc3cccc(Cl)c3)n2n1 [compound 367]
3.3 | Cc1nc2nc(Cl)c(-c3ccccc3F)c(NOCc3ccc(Cl)cc3)n2n1 [compound 368]
2.87 | CCC(C)ONc1c(-c2ccccc2F)c(Cl)nc2nc(C)nn12 (stereo not drawn) [compound 370]
3.38 | Cc1nc2nc(Cl)c(-c3ccccc3F)c(NOCc3cccc(C(F)(F)F)c3)n2n1 [compound 371]
2.98 | CCCCONc1c(-c2ccccc2F)c(Cl)nc2nc(C)nn12 [compound 372]
2.75 | Cc1nc2nc(Cl)c(-c3ccccc3F)c(NOC(C)(C)C)n2n1 [compound 374]
2.03 | CONc1c(-c2ccccc2F)c(Cl)nc2nc(C)nn12 [compound 376]
2.5 | CON(C)c1c(-c2ccccc2F)c(Cl)nc2nc(C)nn12 [compound 377]
2.54 | Cc1nc2nc(Cl)c(-c3ccccc3F)c(NOC(C)C)n2n1 [compound 378]

logP | Compound
3.09 | Cc1nc2nc(Cl)c(-c3c(F)cc(F)cc3F)c(NC(C)C3CC3)n2n1 (stereo not drawn) [compound 379]
3.11 | Cc1nc2nc(Cl)c(-c3ccccc3F)c(NC3CCCC3)n2n1 [compound 385]
2.63 | Cc1nc2nc(Cl)c(-c3ccccc3F)c(NC(C)C)n2n1 [compound 386]
2.95 | CCN(CC)c1c(-c2ccccc2F)c(Cl)nc2nc(C)nn12 [compound 387]
2.16 | Cc1nc2nc(Cl)c(-c3ccccc3F)c(N3CCOCC3)n2n1 [compound 388]
2.02 | CNc1c(-c2ccccc2F)c(Cl)nc2nc(C)nn12 [compound 389]
2.41 | Cc1nc2nc(Cl)c(-c3ccccc3F)c(NC3CC3)n2n1 [compound 390]
2.7 | Cc1nc2nc(Cl)c(-c3ccccc3F)c(NCCC(F)(F)F)n2n1 [compound 395]
3.43 | Cc1nc2nc(Cl)c(-c3ccccc3F)c(NC3CCCCC3)n2n1 [compound 397]
3.91 | Cc1nc2nc(Cl)c(-c3ccccc3Cl)c(N3CCCCC3C)n2n1 (stereo not drawn) [compound 401]
3.56 | CCN(Cc1ccco1)c1c(-c2ccccc2Cl)c(Cl)nc2nc(C)nn12 [compound 404]
3.56 | Cc1nc2nc(Cl)c(-c3ccc(F)cc3F)c(NC3CCC(C(F)(F)F)CC3)n2n1 (stereo not drawn) [compound 409]
2.58 | CCN(CCC#N)c1c(-c2ccc(F)cc2F)c(Cl)nc2nc(C)nn12 [compound 413]
3.36 | CCCN(CCOC)c1c(-c2ccccc2Cl)c(Cl)nc2nc(C)nn12 [compound 416]
2.03 | CNc1c(-c2c(F)cccc2F)c(Cl)nc2nc(C)nn12 [compound 422]
3.52 | Cc1nc2nc(Cl)c(-c3c(F)cccc3F)c(NC3CCCCC3C(F)(F)F)n2n1 (stereo not drawn) [compound 425]
2.52 | Cc1nc2nc(Cl)c(-c3c(F)cccc3F)c(N(O)C(C)C)n2n1 [compound 426]
